Assay results taken from patent US8183287B2, “Pharmaceutical formulations and compositions of a selective antagonist of either CXCR2 or both CXCR1 and CXCR2 and methods of using the same for treating inflammatory disorders” (Schering Corporation, priority 2006, dated 2012).
Read-outs that look alike come from different tables or passages of the source.

Tests used:
[1] = test system: neutrophil recruitment to the pleural cavities; test: neutrophil recruitment to the pleural cavities in response to challenge, oral dosing; assay type: in vivo; conditions: orally administered
Excerpt: (§1) WO 02/083624 describes this compound (as Examples 360.31 and 405), process of making the same, as well as treatment of chemokine-related diseases and cancer using the same. Likewise, WO 03/080053 describes the treatment of chemokine-related diseases using this compound.

[2] = both, human, in vivo
[3] = test system: carrageenan-induced paw edema; test: carrageenan-induced paw edema; assay type: in vivo; conditions: rats, compared with NSAIDs
Excerpt: as §1

[4] = clinical study (i): single-dose oral pharmacokinetics, Formulation 1 capsules; assay type: in vivo, human; conditions: for AUC / Cmax / Tmax / half-life: both sexes, human, plasma; for AUC: po; for AUC / Cmax / Tmax / half-life / Tf Mean: healthy subjects; for Tmax: read-out: Tmax Median; for half-life: read-out: t1/2 Mean (converted)
[5] = single oral dose 150 mg (+Filgrastim 300 μg)

With `CC[C@@H](Nc1c(Nc2cccc(C(=O)N(C)C)c2O)c(=O)c1=O)c1ccc(C)o1` [Compound I] the “neutrophil recruitment to the pleural cavities” value ([1]; mice) was “effectively blocks”, the “neutrophil recruitment to the pleural cavities” value ([1]; rats) was “effectively blocks” and the Median max values [2] was 0.5 to 2 h. For the same molecule, the “ability to inhibit carrageenan-induced paw edema” value [3] was “compares very favorably with NSAIDs”, the “effect of 300 μg filgrastim on the pharmacokinetic profile” value ([4]; 150 mg Compound I followed by filgrastim) was “did not alter the pharmacokinetic profile” and the AUC ([4]; 10 mg, single oral dose 10 mg, read-out: AUC (tf) Mean) was 0.162 µg·h/mL. For the same molecule, the AUC ([4]; 50 mg, single oral dose 50 mg, n = 4, read-out: AUC(I) Mean) was 0.768 µg·h/mL, the AUC ([4]; 50 mg, single oral dose 50 mg, read-out: AUC (tf) Mean) was 0.665 µg·h/mL and the AUC ([4]; 100 mg, single oral dose 100 mg, read-out: AUC (tf) Mean) was 0.827 µg·h/mL. It also gave an AUC ([4]; 100 mg, single oral dose 100 mg, read-out: AUC(I) Mean) of 0.878 µg·h/mL, an AUC ([4]; 150 mg, single oral dose 150 mg, read-out: AUC (tf) Mean) of 1.53 µg·h/mL and an AUC ([4]; 150 mg, single oral dose 150 mg, read-out: AUC(I) Mean) of 1.64 µg·h/mL. For the same molecule, the AUC ([4]; 200 mg, single oral dose 200 mg, read-out: AUC (tf) Mean) was 1.73 µg·h/mL, the AUC ([4]; 200 mg, single oral dose 200 mg, read-out: AUC(I) Mean) was 1.81 µg·h/mL and the AUC ([4]; single oral dose 150 mg (+Filgrastim 300 μg), read-out: AUC (tf) Mean) was 1.32 µg·h/mL. For the same molecule, the AUC ([4]; single oral dose 150 mg (+Filgrastim 300 μg), read-out: AUC(I) Mean) was 1.38 µg·h/mL, the Cmax ([4]; single oral dose 10 mg) was 0.0738 µg/mL and the Tmax ([4]; single oral dose 10 mg) was 1 h. For the same molecule, the Cmax ([4]; single oral dose 50 mg) was 0.153 µg/mL, the half-life ([4]; single oral dose 50 mg, n = 4) was 15.8 h and the Tmax ([4]; single oral dose 50 mg) was 0.75 h. For the same molecule, the Cmax ([4]; single oral dose 100 mg) was 0.261 µg/mL, the Tmax ([4]; single oral dose 100 mg) was 0.75 h and the half-life ([4]; single oral dose 100 mg) was 11.8 h. It also gave a Cmax [4, 5] of 0.292 µg/mL, a Tmax [4, 5] of 0.75 h and a half-life [4, 5] of 13 h. The Cmax ([4]; single oral dose 150 mg) was 0.364 µg/mL, the Tmax ([4]; single oral dose 150 mg) was 0.75 h and the half-life ([4]; single oral dose 150 mg) was 16.7 h. The Cmax ([4]; single oral dose 200 mg) was 0.416 µg/mL, the Tmax ([4]; single oral dose 200 mg) was 0.625 h and the half-life ([4]; single oral dose 200 mg) was 11.3 h. The “increase of Cmax and AUC with dose” value ([4]; from 10 to 200 mg) was “dose-related, but not dose-proportional”, the “Tf Mean” value ([4]; single oral dose 10 mg) was 14 h and the “Tf Mean” value ([4]; single oral dose 50 mg) was 46 h. The “Tf Mean” value ([4]; single oral dose 100 mg) was 38 h, the “Tf Mean” value [4, 5] was 58 h and the “Tf Mean” value ([4]; single oral dose 150 mg) was 64 h. The “Tf Mean” value ([4]; single oral dose 200 mg) was 52 h.
